Data reported in patent US20070167478A1, “Biomarkers for sensitivity of proliferative diseases to mtor inhibitors” (priority 2003, published 2007).

Tests used:
Type in all cases: cell-based
[1] = test system: BT549; assay: Antiproliferative assay, methylene blue staining, BT549; conditions: BT549 human tumor cell line, 4 days incubation
Description: (§1) Human tumor cell lines, e.g. the 40-O-(2-hydroxyethyl) rapamycin-sensitive MCF7, BT549 or LNCap lines (IC50 in sub nM range) versus the comparative 40-O-(2-hydroxyethyl) rapamycin-resistant PC3M line (IC50 in the >100 nM range), as well as cell lines with moderate rapamcyin-sensitivity (IC50 in the 1 nM-100 nM range) such as DU145, HCC1937 and MDA-MB231, are added to 96-well plates (500 to 5000 cells/well in 100 μl medium) and incubated for 24 hr. Subsequently, a dilution series of an mTOR inhibitor, e.g. a compound of formula A, e.g. 40-O-(2-hydroxyethyl) rapamycin is made in separate wells and the dilutions are added to the wells. The cells are then re-incubated for 4 days. Methylene blue staining is performed on day 5 and the amount of bound dye (proportional to the number of surviving cells that bind the dye) determined. IC50s are subsequently determined using Softmax 1.2.0 software.

[2] = test system: PC3M; assay: Antiproliferative assay, methylene blue staining, PC3M; conditions: PC3M human tumor cell line, 4 days incubation
Description: as §1

[3] = test system: LNCap; assay: Antiproliferative assay, methylene blue staining, LNCap; conditions: LNCap human tumor cell line, 4 days incubation
Description: as §1

[4] = test system: MCF7; assay: Antiproliferative assay, methylene blue staining, MCF7; conditions: MCF7 human tumor cell line, 4 days incubation
Description: as §1

IC50 [1]: sub nM | IC50 [2]: > 100 nM | IC50 [3]: sub nM | IC50 [4]: sub nM
SMILES: CO[C@H]1C[C@@H]2CC[C@@H](C)[C@@](O)(O2)C(=O)C(=O)N2CCCC[C@H]2C(=O)O[C@H]([C@H](C)C[C@@H]2CC[C@@H](OCCO)[C@H](OC)C2)CC(=O)[C@H](C)/C=C(\C)[C@@H](O)[C@@H](OC)C(=O)[C@H](C)C[C@H](C)/C=C/C=C/C=C/1C [40-O-(2-hydroxyethyl) rapamycin]
